Measured values as given in ChEMBL document CHEMBL3885861, “Open TG-GATES”.

Species: Rattus norvegicus
Assay: Open TG-GATES - Regimen: Single
Assay type: toxicity, organism-based, Sprague-Dawley
Set-up: regimen Single, gender Male, age 6 weeks
Conditions: in vivo, po, 300 mg/kg, route gavage, dose level Middle; for APTT / Bas / Eos / Fbg / Hb / Ht / Lym / MCH / MCHC / MCV / Mono / Neu / PT / Plat / RBC / Ret / WBC: tissue Blood; for KIDNEY_L / KIDNEY_R / KIDNEY_TOTAL: tissue Kidney; for LIVER: tissue Liver; for A/G / ALP / ALT / AST / BUN / CRE / Ca / Cl / DBIL / GLC / IP / K / LDH / Na / PL / RALB / TBIL / TC / TG / TP / gamma-GTP: tissue Plasma

Work on `Cc1nnc2n1-c1ccc(Cl)cc1C(c1ccccc1Cl)=NC2` [TRIAZOLAM] yielded a TERMINAL_BW (3 h) of 190.9 g, an APTT (3 h) of 16.4 s and a Bas (3 h) of 0.2%. The Eos (3 h) was 1%, the Fbg (3 h) was 270.4 mg/dL and the Hb (3 h) was 13.9 g/dL. The Ht (3 h) was 42.3%, the Lym (3 h) was 73.8% and the MCH (3 h) was 21 pg. For the same compound, the MCHC (3 h) was 33%, the MCV (3 h) was 63.6 fL and the Mono (3 h) was 3%. The Neu (3 h) was 21.4%, the PT (3 h) was 13.4 s and the Plat (3 h) was 117 x10_4/uL. The RBC (3 h) was 665.8 x10_4/ul, the Ret (3 h) was 9% and the WBC (3 h) was 63.2 x10_2/uL. For the same compound, the KIDNEY_L (3 h) was 0.8 g, the KIDNEY_R (3 h) was 0.8 g and the KIDNEY_TOTAL (3 h) was 1.7 g. The LIVER (3 h) was 8.6 g, the A/G (3 h) was 0.9 and the ALP (3 h) was 1451.2 IU/L. The ALT (3 h) was 40.2 IU/L, the AST (3 h) was 71 IU/L and the BUN (3 h) was 9.6 mg/dL. It also gave a CRE (3 h) of 0.1 mg/dL, a Ca (3 h) of 11.3 mg/dL and a Cl (3 h) of 103.2 meq/L. For the same compound, the DBIL (3 h) was 0.008 mg/dL, the GLC (3 h) was 189 mg/dL and the IP (3 h) was 10.7 mg/dL. For the same compound, the K (3 h) was 4.2 meq/L, the LDH (3 h) was 79.4 IU/L and the Na (3 h) was 141.4 meq/L. It also gave a PL (3 h) of 169.4 mg/dL, an RALB (3 h) of 2.5 g/dL and a TBIL (3 h) of 0.066 mg/dL. It also gave a TC (3 h) of 90.4 mg/dL, a TG (3 h) of 60.8 mg/dL and a TP (3 h) of 5.2 g/dL. For the same compound, the gamma-GTP (3 h) was 1.8 IU/L, the TERMINAL_BW (6 h) was 191.6 g and the APTT (6 h) was 17.4 s. The Bas (6 h) was 0%, the Eos (6 h) was 0.4% and the Fbg (6 h) was 282.8 mg/dL. It also gave a Hb (6 h) of 13.8 g/dL, a Ht (6 h) of 42.4% and a Lym (6 h) of 77.2%. The MCH (6 h) was 20.5 pg, the MCHC (6 h) was 32.6% and the MCV (6 h) was 63 fL. It also gave a Mono (6 h) of 2.4%, a Neu (6 h) of 18.8% and a PT (6 h) of 13.5 s. The Plat (6 h) was 123.3 x10_4/uL, the RBC (6 h) was 674.2 x10_4/ul and the Ret (6 h) was 9.2%. The WBC (6 h) was 77.5 x10_2/uL, the KIDNEY_L (6 h) was 0.9 g and the KIDNEY_R (6 h) was 0.9 g. For the same compound, the KIDNEY_TOTAL (6 h) was 1.8 g, the LIVER (6 h) was 8.3 g and the A/G (6 h) was 0.9. It also gave an ALP (6 h) of 1395 IU/L, an ALT (6 h) of 35.6 IU/L and an AST (6 h) of 66.6 IU/L. It also gave a BUN (6 h) of 10.2 mg/dL, a CRE (6 h) of 0.1 mg/dL and a Ca (6 h) of 11.2 mg/dL. For the same compound, the Cl (6 h) was 103 meq/L, the DBIL (6 h) was 0.01 mg/dL and the GLC (6 h) was 183.4 mg/dL. The IP (6 h) was 10.9 mg/dL, the K (6 h) was 4.1 meq/L and the LDH (6 h) was 63.2 IU/L. For the same compound, the Na (6 h) was 141.8 meq/L, the PL (6 h) was 147.6 mg/dL and the RALB (6 h) was 2.5 g/dL. For the same compound, the TBIL (6 h) was 0.068 mg/dL, the TC (6 h) was 81.2 mg/dL and the TG (6 h) was 37.6 mg/dL. The TP (6 h) was 5.3 g/dL, the gamma-GTP (6 h) was 1 IU/L and the TERMINAL_BW (9 h) was 193.6 g. It also gave an APTT (9 h) of 16.7 s, a Bas (9 h) of 0% and an Eos (9 h) of 0.8%. For the same compound, the Fbg (9 h) was 279.6 mg/dL, the Hb (9 h) was 13.5 g/dL and the Ht (9 h) was 41.2%. The Lym (9 h) was 74%, the MCH (9 h) was 21.4 pg and the MCHC (9 h) was 32.8%. For the same compound, the MCV (9 h) was 65.5 fL, the Mono (9 h) was 2.2% and the Neu (9 h) was 22%. It also gave a PT (9 h) of 13.5 s, a Plat (9 h) of 121.1 x10_4/uL and an RBC (9 h) of 629.6 x10_4/ul. It also gave a Ret (9 h) of 9.5%, a WBC (9 h) of 87.2 x10_2/uL and a KIDNEY_L (9 h) of 0.9 g. The KIDNEY_R (9 h) was 0.8 g, the KIDNEY_TOTAL (9 h) was 1.7 g and the LIVER (9 h) was 7.6 g. For the same compound, the A/G (9 h) was 0.9, the ALP (9 h) was 1488.6 IU/L and the ALT (9 h) was 32 IU/L. It also gave an AST (9 h) of 65.2 IU/L, a BUN (9 h) of 10 mg/dL and a CRE (9 h) of 0.2 mg/dL. The Ca (9 h) was 11 mg/dL, the Cl (9 h) was 104.4 meq/L and the DBIL (9 h) was 0.01 mg/dL. The GLC (9 h) was 188 mg/dL, the IP (9 h) was 10.6 mg/dL and the K (9 h) was 4.4 meq/L. It also gave an LDH (9 h) of 57.4 IU/L, a Na (9 h) of 141.2 meq/L and a PL (9 h) of 144.2 mg/dL. For the same compound, the RALB (9 h) was 2.4 g/dL, the TBIL (9 h) was 0.058 mg/dL and the TC (9 h) was 74.2 mg/dL. It also gave a TG (9 h) of 49.4 mg/dL, a TP (9 h) of 5.1 g/dL and a gamma-GTP (9 h) of 1.2 IU/L. For the same compound, the TERMINAL_BW (24 h) was 207.4 g, the APTT (24 h) was 28.1 s and the Bas (24 h) was 0%. For the same compound, the Eos (24 h) was 1%, the Fbg (24 h) was 263.2 mg/dL and the Hb (24 h) was 13.5 g/dL. The Ht (24 h) was 40.8%, the Lym (24 h) was 74.8% and the MCH (24 h) was 21 pg. The MCHC (24 h) was 33%, the MCV (24 h) was 63.6 fL and the Mono (24 h) was 2.6%. The Neu (24 h) was 21%, the PT (24 h) was 13.3 s and the Plat (24 h) was 127 x10_4/uL. For the same compound, the RBC (24 h) was 643.6 x10_4/ul, the Ret (24 h) was 8% and the WBC (24 h) was 94.8 x10_2/uL. It also gave a KIDNEY_L (24 h) of 0.9 g, a KIDNEY_R (24 h) of 0.9 g and a KIDNEY_TOTAL (24 h) of 1.8 g. The LIVER (24 h) was 9.2 g, the A/G (24 h) was 0.9 and the ALP (24 h) was 1802.4 IU/L. For the same compound, the ALT (24 h) was 44.4 IU/L, the AST (24 h) was 66.2 IU/L and the BUN (24 h) was 11.8 mg/dL. For the same compound, the CRE (24 h) was 0.2 mg/dL, the Ca (24 h) was 11.3 mg/dL and the Cl (24 h) was 102.8 meq/L. It also gave a DBIL (24 h) of 0.018 mg/dL, a GLC (24 h) of 180.2 mg/dL and an IP (24 h) of 9.2 mg/dL. It also gave a K (24 h) of 4.5 meq/L, an LDH (24 h) of 73.6 IU/L and a Na (24 h) of 140.8 meq/L. For the same compound, the PL (24 h) was 155.2 mg/dL, the RALB (24 h) was 2.6 g/dL and the TBIL (24 h) was 0.058 mg/dL. For the same compound, the TC (24 h) was 77.6 mg/dL, the TG (24 h) was 88 mg/dL and the TP (24 h) was 5.4 g/dL. It also gave a gamma-GTP (24 h) of 1 IU/L.
